In patent US20230041563A1, “N-(1,3,4-OXADIAZOL-2-YL)ARYLCARBOXAMIDES OR SALTS THEREOF, PREPARATION METHODS, HERBICIDAL COMPOSITIONS AND USES THEREOF” (priority 2018, published 2023):

Key:
[1] = system: Rice; assay: Transplanted rice safety evaluation and weed control effect evaluation in rice field; type: in vivo, rice (japonica rice/Indica rice); conditions: Table 8, dose 60 g a.i./ha
Method: (§1) Transplanted rice safety evaluation and weed control effect evaluation in rice field:
In addition, the rice field soil that loaded into the 1/1,000,000 ha pot was leveled to keep water storage at 3-4 cm depth. The 3 leaf stage rice (japonica rice/Indica rice) was transplanted at 3 cm of transplanting depth the next day. The compound of the present invention was treated by the same way after 5 days of transplantation.
(§2) The fertility condition of echinochloa crusgali, scirpus juncoides, Bidens tripartita, Leptochloa chinensis, Sagittaria trifolia and Monochoria vaginalis 14 days after the treatment of the compound of the invention and the fertility condition of rice 21 days after the treatment of the compound of the invention respectively with the naked eye. Evaluate the weed control effect with 0-5 activity standard level. Many compounds show excellent activity and selectivity.

[2] = system: Echinochloa crusgali; assay: as above; type: in vivo; conditions: Table 8, dose 60 g a.i./ha
Description: as §1
(§3) Rice field soil was loaded into a 1/1,000,000 ha pot. The seeds of echinochloa crusgali, scirpus juncoides, Bidens tripartita, Sagittaria trifolia, Monochoria vaginalis and Leptochloa chinensis were sowed and gently covered with soil, then left to stand still in greenhouse in the state of 0.5-1 cm of water storage. The tuber of Sagittaria trifolia was planted in the next day or 2 days later. It was kept at 3-4 cm of water storage thereafter. The weeds were treated by dripping the WP or SC water diluents prepared according to the common preparation method of the compounds of the present invention with pipette homogeneously to achieve specified effective amount when echinochloa crusgali, scirpus juncoides, Bidens tripartita, Monochoria vaginalis and Leptochloa chinensis reached 0.5 leaf stage and Sagittaria trifolia reached the time point of primary leaf stage.
as §2

[3] = system: Sagittaria trifolia; assay: as above; type: in vivo; conditions: Table 8, dose 60 g a.i./ha
Description: as §1, §3, §2

[4] = system: Monochoria vaginalis; assay: as above; type: in vivo; conditions: Table 8, dose 60 g a.i./ha
Description: as §1, §3, §2

[5] = system: Leptochloa chinensis; assay: as above; type: in vivo; conditions: Table 8, dose 60 g a.i./ha
Description: as §1, §3, §2

[6] = system: Setaria viridis; assay: Weeding effect in post-emergence stage (greenhouse pot spray); type: in vivo
Procedure, shortened: (§4)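 Read-out: fresh-weight growth control rate scored 3 weeks after spraying, mean of three replicates. Plants treated at 2-3 leaf stage by spray tower, doses 500-15 g a.i./ha (500, 250, 125, 60, 15).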

[7] = system: Echinochloa crusgalli; assay: as above; type: in vivo
Procedure, shortened: as §4

[8] = system: Digitaria sanguinalis; assay: as above; type: in vivo
Procedure, shortened: as §4

SMILES | Rice (safety level) [1] | Echinochloa crusgali (activity level) [2] | Sagittaria trifolia (activity level) [3] | Monochoria vaginalis (activity level) [4] | Leptochloa chinensis (activity level) [5] | Setaria viridis (activity level) ([6]; Table 3, dose 60 g a.i./ha) | Echinochloa crusgali (activity level) ([7]; Table 3, dose 60 g a.i./ha) | Digitaria sanguinahs (activity level) ([8]; Table 3, dose 60 g a.i./ha) | Setaria viridis (activity level) ([6]; Table 3, dose 7.5 g a.i./ha) | Setaria viridis (activity level) ([6]; Table 3, dose 15 g a.i./ha) | Setaria viridis (activity level) ([6]; Table 3, dose 30 g a.i./ha) | Echinochloa crusgali (activity level) ([7]; Table 3, dose 7.5 g a.i./ha) | Echinochloa crusgali (activity level) ([7]; Table 3, dose 15 g a.i./ha) | Echinochloa crusgali (activity level) ([7]; Table 3, dose 30 g a.i./ha) | Digitaria sanguinahs (activity level) ([8]; Table 3, dose 7.5 g a.i./ha) | Digitaria sanguinahs (activity level) ([8]; Table 3, dose 15 g a.i./ha) | Digitaria sanguinahs (activity level) ([8]; Table 3, dose 30 g a.i./ha) | Setaria viridis (activity level) ([6]; Table 3, dose 125 g a.i./ha) | Echinochloa crusgali (activity level) ([7]; Table 3, dose 125 g a.i./ha) | Digitaria sanguinahs (activity level) ([8]; Table 3, dose 125 g a.i./ha)
Cc1nnc(NC(=O)c2ccc(C(F)(F)F)c([S@@+]([O-])CCCF)c2F)o1 [1-403 (R-configuration)] | 0 (Level 0: growth control rate is less than 5%) | 5 (Level 5: growth control rate is above 85%) | 5 (Level 5: growth control rate is above 85%) | 5 (Level 5: growth control rate is above 85%) | 5 (Level 5: growth control rate is above 85%) | 5 (Level 5: growth control rate is above 85%) | 5 (Level 5: growth control rate is above 85%) | 5 (Level 5: growth control rate is above 85%) |  |  |  |  |  |  |  |  |  |  |  | 
CCCC[S@+]([O-])c1c(C(F)(F)F)ccc(C(=O)Nc2nnc(C)o2)c1F [1-14 (R-configuration)] | 0 (Level 0: growth control rate is less than 5%) | 5 (Level 5: growth control rate is above 85%) | 5 (Level 5: growth control rate is above 85%) | 5 (Level 5: growth control rate is above 85%) | 5 (Level 5: growth control rate is above 85%) | 5 (Level 5: growth control rate is above 85%) | 5 (Level 5: growth control rate is above 85%) | 5 (Level 5: growth control rate is above 85%) | 4 (Level 4: growth control rate is greater than or equal to 60% and less than 85%) | 4 (Level 4: growth control rate is greater than or equal to 60% and less than 85%) | 5 (Level 5: growth control rate is above 85%) | 5 (Level 5: growth control rate is above 85%) | 5 (Level 5: growth control rate is above 85%) | 5 (Level 5: growth control rate is above 85%) | 4 (Level 4: growth control rate is greater than or equal to 60% and less than 85%) | 5 (Level 5: growth control rate is above 85%) | 5 (Level 5: growth control rate is above 85%) |  |  | 
Cc1nnc(NC(=O)c2ccc(C(F)(F)F)c([S@@+]([O-])C3COC3)c2F)o1 [1-82 (R-configuration)] | 0 (Level 0: growth control rate is less than 5%) | 5 (Level 5: growth control rate is above 85%) | 5 (Level 5: growth control rate is above 85%) | 5 (Level 5: growth control rate is above 85%) | 5 (Level 5: growth control rate is above 85%) |  |  |  |  |  |  |  |  |  |  |  |  | 5 (Level 5: growth control rate is above 85%) | 5 (Level 5: growth control rate is above 85%) | 5 (Level 5: growth control rate is above 85%)
